Consider ten compounds from ChEMBL document CHEMBL1126484, “Backbone modified formyl-methionyl tripeptide chemoattractants” (1993).

Where a SMILES comes first, the peptide text is derived from it.

What all share (format): functional
For test [1], the species on record is Oryctolagus cuniculus. Put plainly: Effective dose to induce the secretion of beta-glucosaminidase from cytochalasin beta-treated rabbit peritoneal polymorphonuclear leukocytes (neutrophils). The conditions noted are these: read-out: ED50 (the source's name).
The species entered for test [2] is Oryctolagus cuniculus. In words: Maximum percentage induction of the secretion of beta-glucosaminidase from cytochalasin beta-treated rabbit peritoneal polymorphonuclear leukocytes (neutrophils).
The species named for test [3] is Oryctolagus cuniculus. Put plainly: Relative potency with respect to HCO-L-Met-L-Leu-L-Phe-OMe (1) was determined.

Consider `COC(=O)[C@H](Cc1ccccc1)NC(=O)[C@@H](CC(C)C)NC(=O)[C@H](CCSC)NC=O`, for which the EC50 in the test listed under Oryctolagus cuniculus [1] amounted to 36 nM. The compound also gave a Max in the test filed under Oryctolagus cuniculus [2] of 38%. In addition, the Relative potency in the test listed under Oryctolagus cuniculus [3] is listed as 0.0019.

Take `CC[C@](C)(NC(=O)[C@H](CCSC)NC=O)C(=O)N[C@@H](Cc1ccccc1)C(=O)OC`: the EC50 in the test filed under Oryctolagus cuniculus [1] worked out at 0.17 nM. This compound displayed a Max in the test filed under Oryctolagus cuniculus [2] of 32%. In the test listed under Oryctolagus cuniculus [3], this compound registered a Relative potency of 0.4.

Regarding `COC(=O)[C@H](Cc1ccccc1)NC(=O)[C@H](CC(C)C)NC(=O)[C@H](CCSC)NC=O`, the EC50 in the test listed under Oryctolagus cuniculus [1] came to 0.068 nM. In addition, in the test listed under Oryctolagus cuniculus [2], the Max was found to be 42%.

Turning to `CSCC[C@H](NC=O)C(=O)N[C@@H](CC(C)C)C(=O)N[C@@H](Cc1ccccc1)C(=O)O`, the EC50 in the test listed under Oryctolagus cuniculus [1] amounted to 0.13 nM. The compound also had a Max in the test listed under Oryctolagus cuniculus [2] of 37%. For the same compound, the Relative potency in the test filed under Oryctolagus cuniculus [3] is 0.52.

Regarding `COC(=O)[C@H](Cc1ccccc1)NC(=O)[C@@](C)(NC(=O)[C@H](CCSC)NC=O)C(C)C`, the EC50 in the test listed under Oryctolagus cuniculus [1] was 0.027 nM. The same compound returned a Max in the test filed under Oryctolagus cuniculus [2] of 32%. The compound also yielded a Relative potency in the test filed under Oryctolagus cuniculus [3] of 2.5.

Take `COC(=O)[C@H](Cc1ccccc1)NC(=O)[C@](C)(CC(C)C)NC(=O)[C@H](CCSC)NC=O`: the EC50 in the test filed under Oryctolagus cuniculus [1] was 0.027 nM. The same compound came in with a Max in the test filed under Oryctolagus cuniculus [2] of 42%. Moreover, in the test filed under Oryctolagus cuniculus [3], the Relative potency was 2.5.

With `COC(=O)[C@H](Cc1ccccc1)NC(=O)C(C)(C)NC(=O)[C@H](CCSC)NC=O` (HELM PEPTIDE1{[O=C[*:2]].M.[Aib].F.[CO[*:1]]}$$$$V2.0), in the test listed under Oryctolagus cuniculus [1], the EC50 stood at 1.4 nM. In addition, the Max in the test filed under Oryctolagus cuniculus [2] is reported as 39%. The Relative potency in the test listed under Oryctolagus cuniculus [3] came out at 0.049.

Turning to `CC[C@@](C)(NC(=O)[C@H](CCSC)NC=O)C(=O)N[C@@H](Cc1ccccc1)C(=O)OC`, the EC50 in the test filed under Oryctolagus cuniculus [1] stood at 0.48 nM. In the test filed under Oryctolagus cuniculus [2], this compound yielded a Max of 42%. For the same compound, the Relative potency in the test listed under Oryctolagus cuniculus [3] was found to be 0.14.

For the compound `COC(=O)[C@H](Cc1ccccc1)NC(=O)[C@](C)(NC(=O)[C@H](CCSC)NC=O)C(C)C`, the EC50 in the test listed under Oryctolagus cuniculus [1] is 0.11 nM. The same compound registered a Max in the test filed under Oryctolagus cuniculus [2] of 38%. This compound also yielded a Relative potency in the test listed under Oryctolagus cuniculus [3] of 0.62.

With `COC(=O)[C@H](Cc1ccccc1)NC(=O)[C@@](C)(CC(C)C)NC(=O)[C@H](CCSC)NC=O`, in the test listed under Oryctolagus cuniculus [1], the EC50 was 0.052 nM. The Max in the test filed under Oryctolagus cuniculus [2] is listed as 42%. In the test filed under Oryctolagus cuniculus [3], this compound returned a Relative potency of 1.3.
